From patent US20230248834A1, “DEGRADATION OF (EGFR) BY CONJUGATION OF EGFR INHIBITORS WITH E3 LIGASE LIGAND AND METHODS OF USE” (BEIGENE, LTD., priority 2020, published 2023) come the findings set out here.

One test concerns the target T1, EGFR L858R/C797S (Homo sapiens, UniProt P00533, C797S/L858R).
T1 construct: expressed in transfected cells; host or cells: BaF3 LC
Description: EGFR degradation HTRF assay in BaF3 LC cells. It is filed as cell-based. The conditions noted are these: BaF3 LC (L858R/C797S), maximum percentage of inhibition (degradation); read-out: BaF3 LC Dmax (%). As for the experimental part:
BaF3-LTC(L858R/T790M/C797S) cells and BaF3 LC(L858R/C797S) cells are treated with compounds diluted in 0.2% DMSO cell culture medium and incubate for 16 h, 37° C., 5% CO2. the final concentration of compounds in all assay is start with 10 uM, 5-fold dilution, total 8 doses were included.
After 16 h treatment, add HTRF lysis buffer to each well; seal the plate and incubate 1 hour at room temperature on a plate shaker; Once the cells are lysed, 16 μL of cell lysate are transferred to a PE 384-well HTRF detection plate; 4 μL of pre-mixed HTRF antibodies are added to each well; Cover the plate with a plate sealer, spin 1000 rpm for 1 min, Incubate overnight at room temperature; Read on BMG PheraStar with HTRF protocol (337 nm-665 nm-620 nm).
The inhibition (degradation) percentage of the compound was calculated by the following equation: Inhibition percentage of Compound=100−100×(Signal−low control)/(High control−low control), wherein signal=each test compound group
High control=Cell group with added DMSO and without compound, indicating microplate readings without EGFR degradation;
Dmax is the maximum percentage of inhibition (degradation).
The IC50 (DC50) value of a compound can be obtained by fitting the following equation
Y=Bottom+(TOP−Bottom)/(1+((IC50/X)^hillslope))
Wherein, X and Y are known values, and IC50, Hillslope, Top and Bottom are the parameters obtained by fitting with software. Y is the inhibition percentage (calculated from the equation), X is the concentration of the compound; IC50 is the concentration of the compound when the 50% inhibition is reached. The smaller the IC50 value is, the stronger the inhibitory ability of the compound is. Vice versa, the higher the IC50 value is, the weaker the inhibitory ability of the compound is; Hillslope represents the slope of the fitted curve, generally around 1*; Bottom represents the minimum value of the curve obtained by data fitting, which is generally 0%±20%; Top represents the maximum value of the curve obtained by data fitting, which is generally 100%±20%. The experimental data were fitted by calculating and analyzing with Dotmatics data analysis software.
(TR-FRET usually uses a lanthanide donor and a delayed reading to cut background.)

In the next test the target is T2, EGFR L858R/T790M/C797S (Homo sapiens, UniProt P00533, C797S/L858R/T790M).
T2 construct: expressed in transfected cells; host or cells: BaF3-LTC
Kind of test: EGFR degradation HTRF assay in BaF3-LTC cells. It is filed as cell-based. The conditions noted are these: BaF3-LTC (L858R/T790M/C797S), maximum percentage of inhibition (degradation); read-out: BaF3-LTC Dmax (%). The gist of the method: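 BaF3 cells expressing EGFR L858R/C797S or L858R/T790M/C797S treated 16 h at 37 °C with compounds (top 10 uM, 5-fold, 8 doses; 0.2% DMSO). Remaining EGFR quantified by HTRF in lysates after overnight antibody incubation. Degradation percentage versus DMSO controls; DC50 from four-parameter fit, Dmax as maximal degradation.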

T1 sequence (P00533 25-1210 C797S/L858R): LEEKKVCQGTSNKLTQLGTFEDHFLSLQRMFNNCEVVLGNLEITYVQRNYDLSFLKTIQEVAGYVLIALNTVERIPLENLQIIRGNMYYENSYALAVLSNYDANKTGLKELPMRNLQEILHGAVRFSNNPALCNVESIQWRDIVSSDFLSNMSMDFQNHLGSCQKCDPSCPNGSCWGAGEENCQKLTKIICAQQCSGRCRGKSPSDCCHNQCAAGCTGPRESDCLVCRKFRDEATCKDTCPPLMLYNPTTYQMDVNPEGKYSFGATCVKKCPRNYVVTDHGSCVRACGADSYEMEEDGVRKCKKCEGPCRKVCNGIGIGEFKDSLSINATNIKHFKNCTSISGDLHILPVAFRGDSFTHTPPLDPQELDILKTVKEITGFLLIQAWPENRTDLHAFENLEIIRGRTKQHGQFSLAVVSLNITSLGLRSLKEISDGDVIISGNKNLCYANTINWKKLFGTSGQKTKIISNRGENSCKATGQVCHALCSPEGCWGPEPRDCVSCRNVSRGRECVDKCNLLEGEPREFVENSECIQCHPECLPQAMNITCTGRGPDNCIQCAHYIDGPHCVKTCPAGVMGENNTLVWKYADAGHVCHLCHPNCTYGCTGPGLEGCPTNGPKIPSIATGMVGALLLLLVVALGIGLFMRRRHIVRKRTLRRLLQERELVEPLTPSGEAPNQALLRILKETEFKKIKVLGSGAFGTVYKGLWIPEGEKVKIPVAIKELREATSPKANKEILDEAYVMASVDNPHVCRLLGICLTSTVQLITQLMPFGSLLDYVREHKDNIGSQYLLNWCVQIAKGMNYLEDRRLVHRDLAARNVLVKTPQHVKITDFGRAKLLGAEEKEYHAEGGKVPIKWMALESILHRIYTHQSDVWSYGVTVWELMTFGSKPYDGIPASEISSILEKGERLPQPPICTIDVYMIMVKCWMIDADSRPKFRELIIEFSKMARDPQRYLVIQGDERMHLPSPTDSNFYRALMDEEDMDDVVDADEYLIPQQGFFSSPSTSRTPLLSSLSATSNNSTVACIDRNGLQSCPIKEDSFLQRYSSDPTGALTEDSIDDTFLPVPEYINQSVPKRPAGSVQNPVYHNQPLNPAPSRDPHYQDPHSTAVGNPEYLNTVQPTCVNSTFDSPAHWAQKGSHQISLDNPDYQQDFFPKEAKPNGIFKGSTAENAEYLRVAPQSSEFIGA
T2 sequence (P00533 25-1210 T790M/C797S/L858R): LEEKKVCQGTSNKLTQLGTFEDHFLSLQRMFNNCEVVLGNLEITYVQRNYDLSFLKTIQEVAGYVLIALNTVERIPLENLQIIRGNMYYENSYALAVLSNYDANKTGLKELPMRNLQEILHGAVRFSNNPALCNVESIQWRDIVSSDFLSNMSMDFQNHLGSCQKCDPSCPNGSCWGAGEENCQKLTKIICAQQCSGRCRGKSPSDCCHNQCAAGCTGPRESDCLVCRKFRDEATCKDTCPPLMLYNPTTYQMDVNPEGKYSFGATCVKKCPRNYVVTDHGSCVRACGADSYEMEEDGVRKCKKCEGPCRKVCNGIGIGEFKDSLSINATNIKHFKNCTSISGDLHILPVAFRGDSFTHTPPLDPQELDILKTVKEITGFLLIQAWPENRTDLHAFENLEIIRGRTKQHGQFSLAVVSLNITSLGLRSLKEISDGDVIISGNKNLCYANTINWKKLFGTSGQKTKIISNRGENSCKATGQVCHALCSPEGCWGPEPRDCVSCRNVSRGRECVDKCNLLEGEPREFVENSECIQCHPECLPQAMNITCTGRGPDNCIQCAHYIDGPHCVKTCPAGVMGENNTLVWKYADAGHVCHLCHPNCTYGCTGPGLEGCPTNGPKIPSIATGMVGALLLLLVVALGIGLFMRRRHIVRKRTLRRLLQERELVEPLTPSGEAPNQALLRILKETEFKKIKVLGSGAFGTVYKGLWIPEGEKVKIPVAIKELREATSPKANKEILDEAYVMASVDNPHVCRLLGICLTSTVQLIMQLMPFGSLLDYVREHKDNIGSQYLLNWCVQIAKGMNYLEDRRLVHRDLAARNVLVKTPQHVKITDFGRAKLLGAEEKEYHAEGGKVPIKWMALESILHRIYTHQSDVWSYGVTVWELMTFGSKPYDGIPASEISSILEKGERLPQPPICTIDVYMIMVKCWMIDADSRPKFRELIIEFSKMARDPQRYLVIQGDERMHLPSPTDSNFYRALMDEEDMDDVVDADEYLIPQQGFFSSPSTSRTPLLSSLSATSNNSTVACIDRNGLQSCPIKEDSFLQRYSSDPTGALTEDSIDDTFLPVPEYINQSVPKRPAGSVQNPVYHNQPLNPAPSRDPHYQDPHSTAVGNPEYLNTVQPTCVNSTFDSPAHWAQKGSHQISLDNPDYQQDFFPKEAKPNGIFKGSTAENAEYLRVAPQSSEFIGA

By Dmax is commonly meant the largest share of the target that was removed. For the compound `CCc1ccc2c(P(C)(C)=O)c(Nc3nc(Nc4cc(CC)c(N5CCC(N6CCN(CCc7cc(F)c([C@H]8CCC(=O)NC8=O)c(F)c7)CC6)CC5)cc4OC)ncc3Br)ccc2n1` [Example 484, (R)-3-(4-(2-(4-(1-(4-((5-bromo-4-((5-(dimethylphosphoryl)-2-ethylquinolin-6-yl)amino)pyrimidin-2-yl)amino)-2-ethyl-5-methoxyphenyl)piperidin-4-yl)piperazin-1-yl)ethyl)-2,6-difluorophenyl)piperidine-2,6-dione], the Dmax on EGFR L858R/C797S was 91.6%; on EGFR L858R/T790M/C797S, 95.4%.
Turning to `CCc1ccc2c(P(C)(C)=O)c(Nc3nc(Nc4cc(CC)c(N5CCC(N6CCN(C(=O)[C@H]7CN(c8cc(F)c([C@H]9CCC(=O)NC9=O)c(F)c8)CC7(C)C)CC6)CC5)cc4OC)ncc3Br)ccc2n1` [Example 754, (R)-3-(4-((R)-4-(4-(1-(4-((5-bromo-4-((5-(dimethylphosphoryl)-2-ethylquinolin-6-yl)amino)pyrimidin-2-yl)amino)-2-ethyl-5-methoxyphenyl)piperidin-4-yl)piperazine-1-carbonyl)-3,3-dimethylpyrrolidin-1-yl)-2,6-difluorophenyl)piperidine-2,6-dione], the Dmax on EGFR L858R/C797S came out at 87.3%; at EGFR L858R/T790M/C797S, 96.3%.
In the case of `CCOc1cc(N2CCC(N3CCN(CCc4cc(F)c([C@H]5CCC(=O)NC5=O)c(F)c4)CC3)CC2)c(CC)cc1Nc1ncc(Br)c(Nc2cc(F)c3nc(CC)ccc3c2P(C)(C)=O)n1` [Example 486, (R)-3-(4-(2-(4-(1-(4-((5-bromo-4-((5-(dimethylphosphoryl)-2-ethyl-8-fluoroquinolin-6-yl)amino)pyrimidin-2-yl)amino)-5-ethoxy-2-ethylphenyl)piperidin-4-yl)piperazin-1-yl)ethyl)-2,6-difluorophenyl)piperidine-2,6-dione], the Dmax on EGFR L858R/C797S and at EGFR L858R/T790M/C797S was 87.8% in each case.
Turning to `CCOc1cc(N2CCC(N3CCN(CCc4cccc5c4n(C)c(=O)n5C4CCC(=O)NC4=O)CC3)CC2)c(CC)cc1Nc1ncc(Br)c(Nc2ccc3nc(CC)ccc3c2P(C)(C)=O)n1` (centres unmarked) [Example 752, 3-(4-(2-(4-(1-(4-((5-bromo-4-((5-(dimethylphosphoryl)-2-ethylquinolin-6-yl)amino)pyrimidin-2-yl)amino)-5-ethoxy-2-ethylphenyl)piperidin-4-yl)piperazin-1-yl)ethyl)-3-methyl-2-oxo-2,3-dihydro-1H-benzo[d]imidazol-1-yl)piperidine-2,6-dione], the Dmax worked out at 94% at EGFR L858R/C797S and 94.7% on EGFR L858R/T790M/C797S.
`CCOc1cc(N2CCC(N3CCN(CCc4c(F)ccc5c4n(C)c(=O)n5C4CCC(=O)NC4=O)CC3)CC2)c(CC)cc1Nc1ncc(Br)c(Nc2ccc3nc(CC)ccc3c2P(C)(C)=O)n1` (centres unmarked) [Example 503, 3-(4-(2-(4-(1-(4-((5-bromo-4-((5-(dimethylphosphoryl)-2-ethylquinolin-6-yl)amino)pyrimidin-2-yl)amino)-5-ethoxy-2-ethylphenyl)piperidin-4-yl)piperazin-1-yl)ethyl)-5-fluoro-3-methyl-2-oxo-2,3-dihydro-1H-benzo[d]imidazol-1-yl)piperidine-2,6-dione]: the Dmax on EGFR L858R/C797S was found to be 88.9%; at EGFR L858R/T790M/C797S it was 90.2%.
`CCc1cc(Nc2ncc(Br)c(Nc3ccc4c(=O)n(C)ncc4c3P(C)(C)=O)n2)c(OC)cc1N1CCC(N2CCN(CCc3cccc4c3C3(CC3)C(=O)N4C3CCC(=O)NC3=O)CC2)CC1` (centres unmarked) [Example 756, 3-(4′-(2-(4-(1-(4-((5-bromo-4-((5-(dimethylphosphoryl)-2-methyl-1-oxo-1,2-dihydrophthalazin-6-yl)amino)pyrimidin-2-yl)amino)-2-ethyl-5-methoxyphenyl)piperidin-4-yl)piperazin-1-yl)ethyl)-2′-oxospiro[cyclopropane-1,3′-indolin]-1′-yl)piperidine-2,6-dione]: the Dmax is 94.5% at EGFR L858R/C797S and 97% at EGFR L858R/T790M/C797S.
For the compound `CCOc1cc(N2CCC(N3CCN(CCc4ccc(F)c5c4oc(=O)n5C4CCC(=O)NC4=O)CC3)CC2)c(CC)cc1Nc1ncc(Br)c(Nc2ccc3nc(CC)ccc3c2P(C)(C)=O)n1` (centres unmarked) [Example 505, 3-(7-(2-(4-(1-(4-((5-bromo-4-((5-(dimethylphosphoryl)-2-ethylquinolin-6-yl)amino)pyrimidin-2-yl)amino)-5-ethoxy-2-ethylphenyl)piperidin-4-yl)piperazin-1-yl)ethyl)-4-fluoro-2-oxobenzo[d]oxazol-3(2H)-yl)piperidine-2,6-dione], the results for the Dmax on EGFR L858R/C797S and on EGFR L858R/T790M/C797S were 83.2% and 75.1%, respectively.
With `CCOc1cc(N2CCC(N3CCN(CCc4cc(F)c([C@H]5CCC(=O)NC5=O)c(F)c4)CC3)CC2)c(CC)cc1Nc1ncc(Br)c(Nc2ccc3nc(CC)ccc3c2P(C)(C)=O)n1` [Example 483, (R)-3-(4-(2-(4-(1-(4-((5-bromo-4-((5-(dimethylphosphoryl)-2-ethylquinolin-6-yl)amino)pyrimidin-2-yl)amino)-5-ethoxy-2-ethylphenyl)piperidin-4-yl)piperazin-1-yl)ethyl)-2,6-difluorophenyl)piperidine-2,6-dione], the Dmax at EGFR L858R/C797S was 83.2%; on EGFR L858R/T790M/C797S it was 86.9%.
For `CCc1ncc2c(P(C)(C)=O)c(Nc3nc(Nc4cc(CC)c(N5CCC(N6CCN(CCc7cc(F)c([C@H]8CCC(=O)NC8=O)c(F)c7)CC6)CC5)cc4OC)ncc3Br)ccc2n1` [Example 589, (R)-3-(4-(2-(4-(1-(4-((5-bromo-4-((5-(dimethylphosphoryl)-2-ethylquinazolin-6-yl)amino)pyrimidin-2-yl)amino)-2-ethyl-5-methoxyphenyl)piperidin-4-yl)piperazin-1-yl)ethyl)-2,6-difluorophenyl)piperidine-2,6-dione], the results for the Dmax on EGFR L858R/C797S and on EGFR L858R/T790M/C797S were 92.4% and 85.9%, respectively.
Regarding `CCc1ccc2c(P(C)(C)=O)c(Nc3nc(Nc4cc(CC)c(N5CCC(N6CCN(CCc7cc(F)c(C8CCC(=O)NC8=O)c(F)c7)CC6)CC5)cc4OC)ncc3Br)ccc2n1` (centres unmarked) [Example 485, 3-(4-(2-(4-(1-(4-((5-bromo-4-((5-(dimethylphosphoryl)-2-ethylquinolin-6-yl)amino)pyrimidin-2-yl)amino)-2-ethyl-5-methoxyphenyl)piperidin-4-yl)piperazin-1-yl)ethyl)-2,6-difluorophenyl)piperidine-2,6-dione], the results for the Dmax at EGFR L858R/C797S and on EGFR L858R/T790M/C797S were 88.3% and 88.5%, respectively.
The corresponding values for `CCOc1cc(N2CCC(N3CCN(CCc4cc(F)c([C@H]5CCC(=O)NC5=O)c(F)c4)CC3)CC2)c(CC)cc1Nc1ncc(Br)c(Nc2ccc3c(=O)n(C)ncc3c2P(C)(C)=O)n1` [Example 502, (R)-3-(4-(2-(4-(1-(4-((5-bromo-4-((5-(dimethylphosphoryl)-2-methyl-1-oxo-1,2-dihydrophthalazin-6-yl)amino)pyrimidin-2-yl)amino)-5-ethoxy-2-ethylphenyl)piperidin-4-yl)piperazin-1-yl)ethyl)-2,6-difluorophenyl)piperidine-2,6-dione] are 87.6% and 96.7%.
Turning to `CCc1cc(Nc2ncc(Br)c(Nc3ccc4c(=O)n(CC)ncc4c3P(C)(C)=O)n2)c(OC)cc1N1CCC(N2CCN(CCc3cc(F)c([C@H]4CCC(=O)NC4=O)c(F)c3)CC2)CC1` [Example 753, (R)-3-(4-(2-(4-(1-(4-((5-bromo-4-((5-(dimethylphosphoryl)-2-ethyl-1-oxo-1,2-dihydrophthalazin-6-yl)amino)pyrimidin-2-yl)amino)-2-ethyl-5-methoxyphenyl)piperidin-4-yl)piperazin-1-yl)ethyl)-2,6-difluorophenyl)piperidine-2,6-dione], the Dmax at EGFR L858R/C797S turned out to be 88.9%; on EGFR L858R/T790M/C797S, 93.2%.
For the compound `CCOc1cc(N2CCC(N3CCN(CCc4cccc5c4C(C)(C)C(=O)N5C4CCC(=O)NC4=O)CC3)CC2)c(CC)cc1Nc1ncc(Br)c(Nc2ccc3c(=O)n(CC)ncc3c2P(C)(C)=O)n1` (centres unmarked) [Example 501, 3-(4-(2-(4-(1-(4-((5-bromo-4-((5-(dimethylphosphoryl)-2-ethyl-1-oxo-1,2-dihydrophthalazin-6-yl)amino)pyrimidin-2-yl)amino)-5-ethoxy-2-ethylphenyl)piperidin-4-yl)piperazin-1-yl)ethyl)-3,3-dimethyl-2-oxoindolin-1-yl)piperidine-2,6-dione], the Dmax at EGFR L858R/C797S was 93.5%; on EGFR L858R/T790M/C797S, 83.5%.
